Experimental data taken from US9540380B2, “Imidazotriazinone compounds” (Ironwood Pharmaceuticals, Inc., priority 2010, dated 2017).

Assays:
PDE1B = biological target: T1, PDE1B (Homo sapiens, UniProt Q01064); experiment: Phosphodiesterase Enzyme Screening Assay, PDE1B (selectivity versus PDE9A2); format: biochemical; conditions: ratio of IC50 values; value greater than 1 indicates greater selectivity for PDE9A2
T1 construct: purchased Reaction Biology Corporation, Malvern, Pa
Excerpt: (§1) Compounds of the invention were screened against PDE1A, PDE1B, PDE2A, PDE3A, PDE3B, PDE4A1A, PDE4B1, PDE4D3, PDE5A1, PDE6C, PDE7A, PDE8A1, PDE9A2, PDE10A2 AND PDE11A isoforms of the phosphodiesterase enzyme to determine activity and overall selectivity through comparative analysis. The assay generally consists of testing the compounds of the invention at 10 concentrations. Where 8-methoxy-IBMX and Zaprinast were used as reference inhibitors.
(§2) The phosphodiesterase enzyme isoforms were obtained from a commercial retailer (Reaction Biology Corporation, Malvern, Pa.) for use in the instant screening assay.
(§3) The analysis was completed using the Caliper LabChip 3000 and a 12-sipper LabChip. LabChip assays are separations-based, meaning that the product and substrate are electrophoretically separated, thereby minimizing interferences and yielding the highest data quality available on any screening platform. Z′ factors for both the EZ Reader and LC3000 enzymatic assays are routinely in the 0.8 to 0.9 range. High Z′ values, few false positives, few false negatives and analytical quality reproducibility are the reasons cited for the increasing reliance on the LabChip assays.
(§4) The off-chip incubation mobility-shift phosphodiesterase assay uses a microfluidic chip to measure the conversion of a fluorescent cyclic AMP substrate to a 5′-AMP product, or a cyclic GMP substrate to a 5′-GMP product. The reaction mixture, from a microtiter plate well, is introduced through a capillary sipper onto the chip, where the fluorescent substrate and product are separated by electrophoresis and detected via laser-induced fluorescence. […] The precision of microfluidics allows researchers to detect subtle interactions between drug candidates and therapeutic targets. The technology is able to detect both strong and weak inhibitors with high accuracy, and routinely identifies drug candidates that conventional techniques miss.
(§5) Reactions were carried out in 100 mM HEPES (pH 7.5), 5 mM MgCl2, 1 mM DTT, 0.003% Brij, 4.0 μM cGMP substrate. The reaction was started by addition of cGMP or cAMP and incubated for 1 hour at R.T. The reaction was terminated by the addition of stop buffer containing 100 mM HEPES (pH 7.5), 15 mM EDTA, 0.015% Brij-35, 5% DMSO. Cyclic AMP/GMP substrate and 5′-AMP/5′-GMP product were separated by charge using electrophoretic mobility shift. Product formed was compared to control wells to determine inhibition or enhancement of enzyme activity.
(§6) One or more reference compounds, depending on phosphodiesterase isoform, selected from 8-methoxy-IBMX, Zaprinast, Trequinsin, Pentoxifyline, Rolipram, and Vinpocetine, Dipyridamole, and BRL-50481 were run alongside client samples to ensure data quality. The resulting IC50 is compared against the historical average and must be within 3-fold of this average.
(§7) Data points were averages of quadruplicate wells and error bars represented the SEM for each point. IC50s were determined using GraphPad Prism Version 5.01 and the log (inhibitor) vs. response variable slope curve fit.

PDE1A = biological target: T2, PDE1A (Homo sapiens, UniProt P54750); experiment: Phosphodiesterase Enzyme Screening Assay, PDE1A (selectivity versus PDE9A2); format: biochemical; conditions: ratio of IC50 values; value greater than 1 indicates greater selectivity for PDE9A2
T2 construct: purchased Reaction Biology Corporation, Malvern, Pa
T2 sequence (P54750 whole entry): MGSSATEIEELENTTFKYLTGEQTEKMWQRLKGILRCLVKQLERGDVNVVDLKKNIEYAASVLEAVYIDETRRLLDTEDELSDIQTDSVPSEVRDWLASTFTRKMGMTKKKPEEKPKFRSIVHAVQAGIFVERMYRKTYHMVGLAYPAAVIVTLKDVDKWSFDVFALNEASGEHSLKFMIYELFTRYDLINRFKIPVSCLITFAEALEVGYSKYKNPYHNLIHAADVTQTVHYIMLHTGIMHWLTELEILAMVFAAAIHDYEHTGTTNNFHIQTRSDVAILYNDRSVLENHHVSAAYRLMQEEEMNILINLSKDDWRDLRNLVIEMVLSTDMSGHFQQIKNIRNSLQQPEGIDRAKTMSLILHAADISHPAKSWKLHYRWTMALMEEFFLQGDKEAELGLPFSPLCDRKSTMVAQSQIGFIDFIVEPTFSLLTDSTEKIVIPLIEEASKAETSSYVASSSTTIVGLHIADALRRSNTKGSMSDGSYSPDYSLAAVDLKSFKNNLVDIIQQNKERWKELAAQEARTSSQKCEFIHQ
Excerpt: as §1, §2, §3, §4, §5, §6, §7

PDE9A2 = biological target: T3, PDE9A2 (Homo sapiens, UniProt O76083); experiment: Phosphodiesterase Enzyme Screening Assay, PDE9A2 (Caliper LabChip mobility-shift); format: biochemical; conditions: 10 concentrations, 4.0 μM cGMP substrate, 1 hour at R.T.; read-out: Band (PDE9A2 IC50)
T3 construct: purchased Reaction Biology Corporation, Malvern, Pa
T3 sequence (O76083 1-533 isoform O76083-2): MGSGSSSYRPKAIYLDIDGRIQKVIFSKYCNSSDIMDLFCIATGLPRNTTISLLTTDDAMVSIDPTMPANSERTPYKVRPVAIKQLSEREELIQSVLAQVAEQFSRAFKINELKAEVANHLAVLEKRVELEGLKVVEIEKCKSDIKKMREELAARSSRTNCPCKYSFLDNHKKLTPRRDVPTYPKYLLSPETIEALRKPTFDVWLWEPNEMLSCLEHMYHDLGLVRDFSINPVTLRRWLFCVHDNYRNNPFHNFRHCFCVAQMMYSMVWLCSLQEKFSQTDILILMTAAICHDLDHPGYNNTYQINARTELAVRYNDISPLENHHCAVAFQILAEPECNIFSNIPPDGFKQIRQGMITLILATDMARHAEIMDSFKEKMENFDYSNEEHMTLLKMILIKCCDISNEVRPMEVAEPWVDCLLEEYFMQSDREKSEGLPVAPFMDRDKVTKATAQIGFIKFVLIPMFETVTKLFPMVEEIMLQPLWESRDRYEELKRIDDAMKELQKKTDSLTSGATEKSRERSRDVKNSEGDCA
Excerpt: as §1, §2, §3, §4, §5, §6, §7

PDE9 = PDE9 (Homo sapiens, UniProt O76083); conditions: PDE9 affinity for cGMP; cited from earlier work
PDE9, sequence (O76083 whole entry): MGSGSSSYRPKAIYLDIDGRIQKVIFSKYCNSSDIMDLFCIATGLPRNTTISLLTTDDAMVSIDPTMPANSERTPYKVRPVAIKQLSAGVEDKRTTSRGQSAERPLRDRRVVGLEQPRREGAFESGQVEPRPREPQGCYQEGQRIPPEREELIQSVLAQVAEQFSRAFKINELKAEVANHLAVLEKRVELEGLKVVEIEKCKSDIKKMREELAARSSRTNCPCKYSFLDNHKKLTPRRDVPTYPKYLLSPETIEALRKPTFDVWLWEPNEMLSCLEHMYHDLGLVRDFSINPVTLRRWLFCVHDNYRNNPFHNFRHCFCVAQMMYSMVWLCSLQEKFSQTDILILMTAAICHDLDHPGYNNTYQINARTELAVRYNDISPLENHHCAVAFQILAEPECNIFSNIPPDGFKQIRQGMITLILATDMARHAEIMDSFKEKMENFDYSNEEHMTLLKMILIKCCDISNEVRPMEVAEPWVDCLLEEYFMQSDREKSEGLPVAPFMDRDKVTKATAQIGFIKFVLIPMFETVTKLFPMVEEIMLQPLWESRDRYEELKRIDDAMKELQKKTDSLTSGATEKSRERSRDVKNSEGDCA

T1 sequence (Q01064 whole entry): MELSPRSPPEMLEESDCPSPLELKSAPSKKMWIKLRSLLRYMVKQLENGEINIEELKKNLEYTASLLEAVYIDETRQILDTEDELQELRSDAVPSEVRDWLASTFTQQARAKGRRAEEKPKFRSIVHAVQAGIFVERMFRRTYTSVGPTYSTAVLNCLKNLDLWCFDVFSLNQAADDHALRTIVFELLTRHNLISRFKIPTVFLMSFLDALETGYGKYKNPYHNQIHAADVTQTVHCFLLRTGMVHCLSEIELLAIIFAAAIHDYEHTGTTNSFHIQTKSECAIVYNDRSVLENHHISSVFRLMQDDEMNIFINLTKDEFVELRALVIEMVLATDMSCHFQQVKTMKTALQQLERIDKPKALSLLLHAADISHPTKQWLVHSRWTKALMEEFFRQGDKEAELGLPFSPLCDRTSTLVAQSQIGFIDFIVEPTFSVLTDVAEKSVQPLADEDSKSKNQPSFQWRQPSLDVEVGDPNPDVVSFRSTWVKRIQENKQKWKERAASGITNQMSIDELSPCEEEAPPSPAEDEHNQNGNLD

SMILES | PDE1B selectivity (versus PDE9A2) (PDE1B) | PDE1A selectivity (versus PDE9A2) (PDE1A) | IC50 (PDE9A2) [nM] | Km (PDE9) [µM]
C[C@@H]1CN(Cc2cccc(C#N)c2)C[C@H]1c1nn2c(C3CCOCC3)ncc2c(=O)[nH]1 (single isomer, unassigned) [(+)-3-(((3,4-trans)-3-methyl-4-(4-oxo-7-(tetrahydro-2H-pyran-4-yl)-3,4-dihydroimidazo[5,1-f][1,2,4]triazin-2-yl)pyrrolidin-1-yl)methyl)benzonitrile] | 343 | 942 | < 1000 | 
C[C@@H]1CN(Cc2ccccc2C#N)C[C@H]1c1nn2c(C3CCOCC3)ncc2c(=O)[nH]1 (single isomer, unassigned) [(+)-2-(((3,4-trans)-3-methyl-4-(4-oxo-7-(tetrahydro-2H-pyran-4-yl)-3,4-dihydroimidazo[5,1-f][1,2,4]triazin-2-yl)pyrrolidin-1-yl)methyl)benzonitrile] | 220 | 241 | < 1000 | 
C[C@@H]1CN(Cc2cn3ncccc3n2)C[C@H]1c1nn2c(C3CCOCC3)ncc2c(=O)[nH]1 (single isomer, unassigned) [(+)-2-((3,4-trans)-1-(imidazo[1,2-b]pyridazin-2-ylmethyl)-4-] [(+)-2-((3,4-trans)-1-(imidazo[1,2-b]pyridazin-2-ylmethyl)-4-methylpyrrolidin-3-yl)-7-(tetrahydro-2H-pyran-4-yl)imidazo[5,1-f][1,2,4]triazin-4(3H)-one] | 1413 | 1005 |  | 
C[C@@H]1CN(Cc2ccc(C#N)cc2)C[C@H]1c1nn2c(C3CCOCC3)ncc2c(=O)[nH]1 (single isomer, unassigned) [(−)-4-(((3,4-trans)-3-methyl-4-(4-oxo-7-(tetrahydro-2H-pyran-4-yl)-3,4-dihydroimidazo[5,1-f][1,2,4]triazin-2-yl)pyrrolidin-1-yl)methyl)benzonitrile] | 1445 | 640 | < 1000 | 
Nc1nc2c(ncn2[C@@H]2O[C@@H]3COP(=O)(O)O[C@H]3[C@H]2O)c(=O)[nH]1 [cGMP, cyclic guanosine monophosphate] |  |  |  | ~0.17
